Measurements reported in PubChem BioAssay AID2060906 (Molecular Pharmacology Branch, DTP, NCI, 2025).

System: 485176-168-R4-J1-PDC complex spheroid growth
Experiment: Anticancer human tumor 485176-168-R4-J1-PDC patient-derived pancreatic adenocarcinoma cell line growth inhibition [RAS]
Conditions: for IC50: curve of first compound; for viability, T/C: stronger effect = lower value
From the text: RAS pathway inhibitors in Combinations in Complex Spheroids
A high-throughput screen of multi-cell type tumor spheroids was designed to identify active combinations of RAS pathway inhibitors and targeted small molecules. Complex spheroids include a stromal component modeled by human endothelial cells (HUVEC) and fibroblasts modeled by human mesenchymal stem cells (MSCs). The concentration ranges selected for each drug and investigational agent were based upon clinically achievable concentrations if the clinical Cmax of the agent was known.
Compounds. The drugs and investigational agents: abemaciclib (NSC768073), cobimetinib (NSC768068), divarasib (GDC6063, NSC841802), docetaxel (NSC628503), GDC-1971 (RLY-1971, NSC841576), gemcitabine (NSC613327), inavolisib (NSC800729), ipatasertib (NSC767898), KB-0742 (NSC834161), MRTX-1133 (NSC836407), osimertinib (NSC779217), RMC-4630 (NSC839698), RMC-6236 (NSC851965), RMC-6291 (NSC852671), Ro-3306 (NSC812927), sapanisertib (NSC764658), SN-38 (NSC673596), staurosporine (NSC755774), SY5609 (NSC837396), and tovorafenib (DAY101, NSC766906), were obtained from the National Cancer Institute (NCI) Developmental Therapeutics Program Chemical Repository. The FDA-approved anticancer drug set is available from the NCI Developmental Therapeutics Program. […] The stock solutions were prepared in dimethyl sulfoxide (DMSO, Sigma-Aldrich, St. Louis, MO, cat. D2650) at 800-fold the tested concentration and stored at -70 degrees C prior to their use. All drugs and investigational agents were tested over a range starting from a high concentration at or near the clinical Cmax and decreasing in half-log increments. If the clinical Cmax for an agent had not been determined, the highest concentration tested was 10 microM.
Cell Culture. All cells were maintained in an incubator at 37 degrees C and 5% CO2 with 95% humidity. The PDC lines were cultured according to standard operating procedures established by the NCI PDMR. All PDCs were thawed and cultured in Matrigel-coated flasks prepared with a working solution of 1X Ham's F-12 nutrient mix, without supplementation (Invitrogen, Waltham, MA, cat. 11765054), 100 U/mL penicillin-streptomycin (Invitrogen, cat. 15140122), and 2.5% Matrigel (Corning Inc., Corning, NY, cat. 354248) for the first three passages. The 362531-283-R-J2-PDC and 782815-120-R-J1-PDC lines were cultured in 6C/Colon 1B media, which includes advanced DMEM/F-12 (Thermo Fisher Scientific, cat. 12634028), 10 mM HEPES (Thermo Fisher Scientific, cat. 15630080), 1X GlutaMAX supplement (Thermo Fisher Scientific, cat. 35050061), 0.1 mg/mL primocin (InvivoGen, San Diego, CA, cat. ant-pm-2), 10% defined fetal bovine serum, heat inactivated (HyClone Laboratories Inc., Logan, UT, cat. SH30070.03HI), 50% L-WRN conditioned media (ATCC, cat. CRL-3276), 1.25 mM N-Acetyl-L-cysteine (Sigma-Aldrich, cat. A9165), 10 mM nicotinamide (Sigma-Aldrich, cat. N0636), 1X B-27 supplement (Thermo Fisher Scientific, cat. 17504044), 1X N-2 supplement (Thermo Fisher Scientific, cat. 17502048), 50 ng/mL human EGF (Thermo Fisher Scientific, cat. PHG0311), and 10 microM Y-27632 dihydrochloride (Tocris Bioscience, cat. 1254). The K12877-001-R-J1-PDC line was cultured in 6I media, which includes all 6C/Colon 1B media plus 10 ng/mL human FGF-10 (PeproTech, cat. 100-26), 1 ng/mL human FGF-2 (PeproTech, cat. 100-18B), 1 µM prostaglandin E2 (Tocris Bioscience, cat. 2296), […] hydrocortisone (Sigma-Aldrich, cat. H4001), and […] bovine insulin (Sigma-Aldrich, cat. I6634). The K86415-001-R-J1-PDC line was cultured in 6D media, which includes all 6C/Colon 1B media components minus the L-WRN conditioned media. The 485176-168-R4-J1-PDC was cultured in PANC media, which includes all 6C/Colon 1B media plus 100 ng/mL human FGF-10 (PeproTech, cat. 100-26), 500 nM SB-431542 (Selleckchem, cat. S1067), and 10 nM gastrin (Tocris Bioscience, cat. 3006). […]

[1] = second compound 0.0316 µM, first compound 0.0316 µM
[2] = second compound 0.0316 µM, first compound 0.1 µM
[3] = second compound 0.1 µM, first compound 0.0316 µM
[4] = second compound 0.1 µM, first compound 0.1 µM
[5] = second compound 0.316 µM, first compound 0.0316 µM
[6] = second compound 0.316 µM, first compound 0.1 µM
[7] = second compound 1 µM, first compound 0.0316 µM
[8] = second compound 1 µM, first compound 0.1 µM
[9] = second compound 3.16 µM, first compound 0.0316 µM
[10] = second compound 3.16 µM, first compound 0.1 µM
[11] = second compound 10 µM, first compound 0.0316 µM
[12] = second compound 10 µM, first compound 0.1 µM
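Further: spheroids exposed to compounds for seven days before readout.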
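Wherever viability, T/C is given: luminescence viability expressed relative to DMSO vehicle wells set as 100%.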

CC(C)NCC(C(=O)N1CCN(c2ncnc3c2C(C)CC3O)CC1)c1ccc(Cl)cc1 (centres undefined) + C#Cc1c(F)ccc2cc(O)cc(-c3ncc4c(N5CC6CCC(C5)N6)nc(OCC56CCCN5CC(F)C6)nc4c3F)c12
IC50 (second compound 0.0316 µM): 3.29 µM
IC50 (second compound 0.1 µM): 0.851 µM
IC50 (second compound 0.316 µM): 2.77 µM
IC50 (second compound 1 µM): 0.884 µM
IC50 (second compound 3.16 µM): 2.12 µM
IC50 (second compound 10 µM): 1.51 µM
viability, T/C [1]: 113%
viability, T/C [2]: 99.2%
viability, T/C (second compound 0.0316 µM, first compound 0.316 µM): 84.7%
viability, T/C (second compound 0.0316 µM, first compound 1 µM): 70.1%
viability, T/C (second compound 0.0316 µM, first compound 3.16 µM): 47.3%
viability, T/C (second compound 0.0316 µM, first compound 10 µM): 38.5%
viability, T/C [3]: 99%
viability, T/C [4]: 127%
viability, T/C (second compound 0.1 µM, first compound 0.316 µM): 72.8%
viability, T/C (second compound 0.1 µM, first compound 1 µM): 59.8%
viability, T/C (second compound 0.1 µM, first compound 3.16 µM): 45.6%
viability, T/C (second compound 0.1 µM, first compound 10 µM): 33.4%
viability, T/C [5]: 109%
viability, T/C [6]: 96.5%
viability, T/C (second compound 0.316 µM, first compound 0.316 µM): 72.7%
viability, T/C (second compound 0.316 µM, first compound 1 µM): 65.4%
viability, T/C (second compound 0.316 µM, first compound 3.16 µM): 51.8%
viability, T/C (second compound 0.316 µM, first compound 10 µM): 31.1%
viability, T/C [7]: 92.2%
viability, T/C [8]: 105%
viability, T/C (second compound 1 µM, first compound 0.316 µM): 72.4%
viability, T/C (second compound 1 µM, first compound 1 µM): 51.4%
viability, T/C (second compound 1 µM, first compound 3.16 µM): 48.5%
viability, T/C (second compound 1 µM, first compound 10 µM): 35.3%
viability, T/C [9]: 99.3%
viability, T/C [10]: 96.1%
viability, T/C (second compound 3.16 µM, first compound 0.316 µM): 82.9%
viability, T/C (second compound 3.16 µM, first compound 1 µM): 53.8%
viability, T/C (second compound 3.16 µM, first compound 3.16 µM): 52%
viability, T/C (second compound 3.16 µM, first compound 10 µM): 31%
viability, T/C [11]: 104%
viability, T/C [12]: 87.9%
viability, T/C (second compound 10 µM, first compound 0.316 µM): 82.6%
viability, T/C (second compound 10 µM, first compound 1 µM): 55.8%
viability, T/C (second compound 10 µM, first compound 3.16 µM): 36.8%
viability, T/C (second compound 10 µM, first compound 10 µM): 33.9%

CC(C)n1nc(-c2ccc3oc(N)nc3c2)c2c(N)ncnc21 + C#Cc1c(F)ccc2cc(O)cc(-c3ncc4c(N5CC6CCC(C5)N6)nc(OCC56CCCN5CC(F)C6)nc4c3F)c12
IC50 (second compound 0.0316 µM): 0.0318 µM
IC50 (second compound 0.1 µM): 0.019 µM
IC50 (second compound 0.316 µM): 0.0346 µM
IC50 (second compound 1 µM): 0.025 µM
IC50 (second compound 3.16 µM): 0.0221 µM
IC50 (second compound 10 µM): 0.0233 µM
viability, T/C (second compound 0.0316 µM, first compound 0.000316 µM): 100%
viability, T/C (second compound 0.0316 µM, first compound 0.001 µM): 106%
viability, T/C (second compound 0.0316 µM, first compound 0.00316 µM): 88.6%
viability, T/C (second compound 0.0316 µM, first compound 0.01 µM): 82.3%
viability, T/C [1]: 49%
viability, T/C [2]: 19.8%
viability, T/C (second compound 0.1 µM, first compound 0.000316 µM): 96.2%
viability, T/C (second compound 0.1 µM, first compound 0.001 µM): 107%
viability, T/C (second compound 0.1 µM, first compound 0.00316 µM): 65.4%
viability, T/C (second compound 0.1 µM, first compound 0.01 µM): 69.2%
viability, T/C [3]: 39%
viability, T/C [4]: 23.7%
viability, T/C (second compound 0.316 µM, first compound 0.000316 µM): 98.3%
viability, T/C (second compound 0.316 µM, first compound 0.001 µM): 78.5%
viability, T/C (second compound 0.316 µM, first compound 0.00316 µM): 82.5%
viability, T/C (second compound 0.316 µM, first compound 0.01 µM): 63.1%
viability, T/C [5]: 61.7%
viability, T/C [6]: 20.1%
viability, T/C (second compound 1 µM, first compound 0.000316 µM): 88%
viability, T/C (second compound 1 µM, first compound 0.001 µM): 91.5%
viability, T/C (second compound 1 µM, first compound 0.00316 µM): 86.4%
viability, T/C (second compound 1 µM, first compound 0.01 µM): 55.9%
viability, T/C [7]: 51.9%
viability, T/C [8]: 22%
viability, T/C (second compound 3.16 µM, first compound 0.000316 µM): 91.9%
viability, T/C (second compound 3.16 µM, first compound 0.001 µM): 87.7%
viability, T/C (second compound 3.16 µM, first compound 0.00316 µM): 78.4%
viability, T/C (second compound 3.16 µM, first compound 0.01 µM): 80%
viability, T/C [9]: 36.6%
viability, T/C [10]: 21.5%
viability, T/C (second compound 10 µM, first compound 0.000316 µM): 92.3%
viability, T/C (second compound 10 µM, first compound 0.001 µM): 81.1%
viability, T/C (second compound 10 µM, first compound 0.00316 µM): 80.8%
viability, T/C (second compound 10 µM, first compound 0.01 µM): 68.9%
viability, T/C [11]: 42.5%
viability, T/C [12]: 20.9%
